Data: patent publication EP4578856A1, “HETEROCYCLIC COMPOUND” (Ubience Inc., priority 2022, dated 2024)

Target: T1, human ALK kinase (Homo sapiens, UniProt Q9UM73)
T1 construct: GST (N); purchased Carna Biosciences, Inc; host or cells: baculovirus expression system
Assay: ALK kinase inhibitory activity, mobility shift assay (MSA, Carna Biosciences)
Type: biochemical
Details: inhibition rate at 10 nM
Description: The ALK kinase inhibitory activity was measured using a mobility shift assay (MSA) provided by Carna Biosciences, Inc.
The test compound was dissolved in DMSO to prepare a 1 µM solution. The solution was further diluted 25 times with an assay buffer (20 mmol/L HEPES, 0.01%Triton (registered trademark) X-100, 1 mmol/L DTT, pH 7.5) to obtain a test compound solution.
The human ALK kinase was expressed by fusing the cytoplasmic domain (1058 to 1620 amino acids of Accession No. BAG 10812.1) with GST at the N-terminus using the baculovirus expression system. The GST-ALK was purified by glutathione sepharose chromatography. A 4-fold concentration substrate (Srctide, 1000 nmol/L)/ATP (50 µmol/L)/metal solution (Mg, 5 mmol/L) was prepared with kit buffer (20 mmol/L HEPES, 0.01% Triton (registered trademark) X-100, 5 mmol/L DTT, pH 7.5). A 2-fold concentration kinase solution was prepared with assay buffer.
In the same manner as described in Test Example 1, tests and evaluation of inhibitory activity and data analysis were performed.

T1 sequence (Q9UM73 1058-1620): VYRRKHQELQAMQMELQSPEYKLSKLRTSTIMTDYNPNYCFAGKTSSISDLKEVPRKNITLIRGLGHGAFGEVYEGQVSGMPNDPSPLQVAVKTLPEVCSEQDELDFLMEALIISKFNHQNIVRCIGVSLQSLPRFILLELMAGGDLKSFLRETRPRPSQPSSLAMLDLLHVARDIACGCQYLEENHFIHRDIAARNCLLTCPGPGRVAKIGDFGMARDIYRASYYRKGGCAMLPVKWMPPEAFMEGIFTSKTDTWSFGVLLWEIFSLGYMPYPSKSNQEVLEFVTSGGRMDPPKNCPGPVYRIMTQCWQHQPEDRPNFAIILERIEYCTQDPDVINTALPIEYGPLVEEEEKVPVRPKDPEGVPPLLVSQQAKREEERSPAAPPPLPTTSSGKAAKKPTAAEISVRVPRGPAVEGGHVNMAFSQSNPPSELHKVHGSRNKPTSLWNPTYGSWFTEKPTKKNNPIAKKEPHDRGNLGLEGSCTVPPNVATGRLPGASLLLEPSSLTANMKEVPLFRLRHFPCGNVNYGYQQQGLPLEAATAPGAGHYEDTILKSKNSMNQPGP

inhibition at 0.01 µM	Structure (SMILES)
≥ 75%	COC[C@H]1CN[C@H](C)CN1CC(=O)N1CC(C)(C)c2ncc(Cc3ccccc3OCCOCCOCCOCCOCCNC(=O)CN3CCC(c4cc(OC(C)C)c(Nc5ncc(Cl)c(Nc6ccccc6S(=O)(=O)C(C)C)n5)cc4C)CC3)cc21 [Example 100, 2-(4-(4-((5-Chloro-4-((2-(isopropylsulfonyl)phenyl)amino)pyrimidin-2-yl)amino)-5-isopropoxy-2-methylphenyl)piperidin-1-yl)-N-(14-(2-((1-(2-((2R,5R)-2-(methoxymethyl)-5-methylpiperazin-1-yl)acetyl)-3,3-dimethyl-2,3-dihydro-1H-pyrrolo[3,2-b]pyridin-6-yl)methyl)phenoxy)-3,6,9,12-tetraoxatetradecyl)acetamide]
≥ 75%	COC[C@H]1CN[C@H](C)CN1CC(=O)N1CC(C)(C)c2ncc(Cc3cccc(OCCOCCOCCOCCOCCOCCNC(=O)CN4CCC(c5cc(OC(C)C)c(Nc6ncc(Cl)c(Nc7ccccc7S(=O)(=O)C(C)C)n6)cc5C)CC4)c3)cc21 [Example 107, 2-(4-(4-((5-Chloro-4-((2-(isopropylsulfonyl)phenyl)amino)pyrimidin-2-yl)amino)-5-isopropoxy-2-methylphenyl)piperidin-1-yl)-N-(17-(3-((1-(2-((2R,5R)-2-(methoxymethyl)-5-methylpiperazin-1-yl)acetyl)-3,3-dimethyl-2,3-dihydro-1H-pyrrolo[3,2-b]pyridin-6-yl)methyl)phenoxy)-3,6,9,12,15-pentaoxaheptadecyl)acetamide]
50 to 75%	Cc1cc(Nc2ncc(Cl)c(Nc3ccccc3S(=O)(=O)C(C)C)n2)c(OC(C)C)cc1C1CCN(CC(=O)NCCOCCN(C)C[C@H]2CN[C@H](C)CN2CC(=O)N2CC(C)(C)c3ncc(Cc4ccc(F)cc4)cc32)CC1 [Example 85, 2-(4-(4-((5-Chloro-4-((2-(isopropylsulfonyl)phenyl)amino)pyrimidin-2-yl)amino)-5-isopropoxy-2-methylphenyl)piperidin-1-yl)-N-(2-(2-((((2R,5R)-1-(2-(6-(4-fluorobenzyl)-3,3-dimethyl-2,3-dihydro-1H-pyrrolo[3,2-b]pyridin-1-yl)-2-oxoethyl)-5-methylpiperazin-2-yl)methyl) (methyl)amino)ethoxy)ethyl)acetamide]
≥ 75%	COC[C@H]1CN[C@H](C)CN1CC(=O)N1CC(C)(C)c2nc(CN(C)CCOCCOCCOCCOCCOCCNC(=O)CN3CCC(c4cc(OC(C)C)c(Nc5ncc(Cl)c(Nc6ccccc6S(=O)(=O)C(C)C)n5)cc4C)CC3)c(Cc3ccc(F)cc3)cc21 [Example 95, 2-(4-(4-((5-Chloro-4-((2-(isopropylsulfonyl)phenyl)amino)pyrimidin-2-yl)amino)-5-isopropoxy-2-methylphenyl)piperidin-1-yl)-N-(1-(6-(4-fluorobenzyl)-1-(2-((2R,5R)-2-(methoxymethyl)-5-methylpiperazin-1-yl)acetyl)-3,3-dimethyl-2,3-dihydro-1H-pyrrolo[3,2-b]pyridin-5-yl)-2-methyl-5,8,11,14,17-pentaoxa-2-azanonadecan-19-yl)acetamide]
50 to 75%	Cc1cc(Nc2ncc(Cl)c(Nc3ccccc3S(=O)(=O)C(C)C)n2)c(OC(C)C)cc1C1CCN(CC(=O)NCCOCCOCCOCCOCCOCCN(C)C[C@H]2CN[C@H](C)CN2CC(=O)N2CC(C)(C)c3ncc(Cc4ccc(F)cc4)cc32)CC1 [Example 89, 2-(4-(4-((5-Chloro-4-((2-(isopropylsulfonyl)phenyl)amino)pyrimidin-2-yl)amino)-5-isopropoxy-2-methylphenyl)piperidin-1-yl)-N-(1-((2R,5R)-1-(2-(6-(4-fluorobenzyl)-3,3-dimethyl-2,3-dihydro-1H-pyrrolo[3,2-b]pyridin-1-yl)-2-oxoethyl)-5-methylpiperazin-2-yl)-2-methyl-5,8,11,14,17-pentaoxa-2-azanonadecan-19-yl)acetamide]
≥ 75%	COC[C@H]1CN[C@H](C)CN1CC(=O)N1CC(C)(C)c2nc(CN(C)CCOCCOCCNC(=O)CN3CCC(c4cc(OC(C)C)c(Nc5ncc(Cl)c(Nc6ccccc6S(=O)(=O)C(C)C)n5)cc4C)CC3)c(Cc3ccc(F)cc3)cc21 [Example 92, 2-(4-(4-((5-Chloro-4-((2-(isopropylsulfonyl)phenyl)amino)pyrimidin-2-yl)amino)-5-isopropoxy-2-methylphenyl)piperidin-1-yl)-N-(2-(2-(2-(((6-(4-fluorobenzyl)-1-(2-((2R,5R)-2-(methoxymethyl)-5-methylpiperazin-1-yl)acetyl)-3,3-dimethyl-2,3-dihydro-1H-pyrrolo[3,2-b]pyridin-5-yl)methyl) (methyl)amino)ethoxy)ethoxy)ethyl) acetamide]

Target: FAK protein (Homo sapiens, UniProt Q05397)
Assay: FAK kinase inhibitory activity, mobility shift assay (MSA, Carna Biosciences)
Type: biochemical
Design: GST (N); purchased Carna Biosciences, Inc; host or cells: baculovirus expression system
Details: inhibition rate at 30 nM; reaction time 5 hours
Description: The FAK kinase inhibitory activity was measured using a mobility shift assay (MSA) provided by Carna Biosciences, Inc.
The test compound was dissolved in DMSO to prepare a 3 µM solution. The solution was further diluted 25 times with an assay buffer (20 mmol/L HEPES, 0.01%Triton (registered trademark) X-100, 1 mmol/L DTT, pH 7.5) to obtain a test compound solution.
Incomplete human FAK kinase was expressed by fusing 376 to 1052 amino acids of Accession No. NP_722560.1 with GST at the N-terminus using the baculovirus expression system. The GST-FAK was purified by glutathione sepharose chromatography. A 4-fold concentration substrate (Blk/Lyntide, 1000 nmol/L)/ATP (25 µmol/L)/metal solution (Mg, 5 mmol/L) was prepared with kit buffer (20 mmol/L HEPES, 0.01% Triton (registered trademark) X-100, 5 mmol/L DTT, pH 7.5). A 2-fold concentration kinase solution was prepared with assay buffer.
In the same manner as described in Test Example 1, tests and evaluation of inhibitory activity and data analysis were performed. The reaction time was set to 5 hours. […]

Sequence of FAK protein (Q05397 376-1052): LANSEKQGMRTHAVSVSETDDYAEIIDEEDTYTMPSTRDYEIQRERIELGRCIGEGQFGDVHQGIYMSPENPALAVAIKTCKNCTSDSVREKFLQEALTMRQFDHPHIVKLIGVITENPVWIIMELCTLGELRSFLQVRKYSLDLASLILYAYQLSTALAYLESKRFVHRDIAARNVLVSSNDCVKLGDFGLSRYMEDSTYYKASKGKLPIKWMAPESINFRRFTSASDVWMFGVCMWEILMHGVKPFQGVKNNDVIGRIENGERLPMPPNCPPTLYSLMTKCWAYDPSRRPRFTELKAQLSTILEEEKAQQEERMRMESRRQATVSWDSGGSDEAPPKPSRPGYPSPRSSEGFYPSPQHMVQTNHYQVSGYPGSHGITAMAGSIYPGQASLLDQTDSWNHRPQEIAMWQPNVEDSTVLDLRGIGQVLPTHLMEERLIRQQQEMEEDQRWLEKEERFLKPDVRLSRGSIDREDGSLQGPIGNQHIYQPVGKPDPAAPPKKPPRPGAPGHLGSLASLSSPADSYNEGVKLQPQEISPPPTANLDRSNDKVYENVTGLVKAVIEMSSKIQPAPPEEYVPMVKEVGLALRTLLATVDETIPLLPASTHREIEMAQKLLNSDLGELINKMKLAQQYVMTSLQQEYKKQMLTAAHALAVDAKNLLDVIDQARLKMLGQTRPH

inhibition at 0.03 µM	Structure (SMILES)
50 to 75%	COC[C@H]1CN[C@H](C)CN1CC(=O)N1CC(C)(C)c2ncc(Cc3cccc(OCCN4CCN(CCOCCOCCOCCOCC(=O)Nc5ccc(Nc6ncc(C(F)(F)F)c(NCc7cccc(S(C)(=O)=O)c7)n6)cc5)CC4)c3)cc21 [Example 128, 14-(4-(2-(3-((1-(2-((2R,5R)-2-(Methoxymethyl)-5-methylpiperazin-1-yl)acetyl)-3,3-dimethyl-2,3-dihydro-1H-pyrrolo[3,2-b]pyridin-6-yl)methyl)phenoxy)ethyl)piperazin-1-yl)-N-(4-((4-((3-(methylsulfonyl)benzyl)amino)-5-(trifluoromethyl)pyrimidin-2-yl)amino)phenyl)-3,6,9,12-tetraoxatetradecanamide]
50 to 75%	COC[C@H]1CN[C@H](C)CN1CC(=O)N1CC(C)(C)c2ncc(Cc3ccccc3OCCN3CCN(CCOCCOCCOCC(=O)Nc4ccc(Nc5ncc(C(F)(F)F)c(NCc6cccc(S(C)(=O)=O)c6)n5)cc4)CC3)cc21 [Example 122, 2-(2-(2-(2-(4-(2-(2-((1-(2-((2R,5R)-2-(Methoxymethyl)-5-methylpiperazin-1-yl)acetyl)-3,3-dimethyl-2,3-dihydro-1H-pyrrolo[3,2-b]pyridin-6-yl)methyl)phenoxy)ethyl)piperazin-1-yl)ethoxy)ethoxy)ethoxy)-N-(4-((4-((3-(methylsulfonyl)benzyl)amino)-5-(trifluoromethyl)pyrimidin-2-yl)amino)phenyl)acetamide]
50 to 75%	COC[C@H]1CN[C@H](C)CN1CC(=O)N1CC(C)(C)c2nc(CN3CCN(CCOCCOCC(=O)Nc4ccc(Nc5ncc(C(F)(F)F)c(NCc6cccc(S(C)(=O)=O)c6)n5)cc4)CC3)c(Cc3ccc(F)cc3)cc21 [Example 116, 2-(2-(2-(4-((6-(4-Fluorobenzyl)-1-(2-((2R,5R)-2-(methoxymethyl)-5-methylpiperazin-1-yl)acetyl)-3,3-dimethyl-2,3-dihydro-1H-pyrrolo[3,2-b]pyridin-5-yl)methyl)piperazin-1-yl)ethoxy)ethoxy)-N-(4-((4-((3-(methylsulfonyl)benzyl)amino)-5-(trifluoromethyl)pyrimidin-2-yl)amino)phenyl)acetamide]
≥ 75%	C[C@@H]1CN(CC(=O)N2CC(C)(C)c3ncc(Cc4ccc(F)cc4)cc32)[C@@H](CN(C)CCOCC(=O)Nc2ccc(Nc3ncc(C(F)(F)F)c(NCc4cccc(S(C)(=O)=O)c4)n3)cc2)CN1 [Example 109, 2-(2-((((2R,5R)-1-(2-(6-(4-Fluorobenzyl)-3,3-dimethyl-2,3-dihydro-1H-pyrrolo[3,2-b]pyridin-1-yl)-2-oxoethyl)-5-methylpiperazin-2-yl)methyl)(methyl)amino)ethoxy)-N-(4-((4-((3-(methylsulfonyl)benzyl)amino)-5-(trifluoromethyl)pyrimidin-2-yl)amino)phenyl) acetamide]
